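Assay format: 96-well plates, 48-hour exposure. GI50 marks 50% less growth. TGI is the concentration that stops growth completely.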
Assays:
Assay in all cases: NCI anticancer screen, dose series, 48 h
786-0 renal = test system: 786-0 renal
A498 renal = test system: A498 renal
A549 NSCLC = test system: A549 NSCLC
ACHN renal = test system: ACHN renal
BT-549 breast = test system: BT-549 breast
CAKI-1 renal = test system: CAKI-1 renal
CCRF-CEM leukemia = test system: CCRF-CEM leukemia
COLO 205 colon = test system: COLO 205 colon
DU-145 prostate = test system: DU-145 prostate
EKVX NSCLC = test system: EKVX NSCLC
HCC-2998 colon = test system: HCC-2998 colon
HCT-116 colon = test system: HCT-116 colon
HCT-15 colon = test system: HCT-15 colon
HL-60(TB) leukemia = test system: HL-60(TB) leukemia
HOP-62 NSCLC = test system: HOP-62 NSCLC
HOP-92 NSCLC = test system: HOP-92 NSCLC
HS 578T breast = test system: HS 578T breast
HT29 colon = test system: HT29 colon
IGROV1 ovarian = test system: IGROV1 ovarian
K-562 leukemia = test system: K-562 leukemia
KM12 colon = test system: KM12 colon
LOX IMVI melanoma = test system: LOX IMVI melanoma
M14 melanoma = test system: M14 melanoma
MALME-3M melanoma = test system: MALME-3M melanoma
MCF7 breast = test system: MCF7 breast
MDA-MB-231 breast = test system: MDA-MB-231 breast
MDA-MB-435 = test system: MDA-MB-435
MOLT-4 leukemia = test system: MOLT-4 leukemia
NCI-H226 lung = test system: NCI-H226 lung
NCI-H23 lung = test system: NCI-H23 lung
NCI-H460 lung = test system: NCI-H460 lung
NCI-H522 lung = test system: NCI-H522 lung
NCI/ADR-RES ovarian = test system: NCI/ADR-RES ovarian
OVCAR-3 ovarian = test system: OVCAR-3 ovarian
OVCAR-4 ovarian = test system: OVCAR-4 ovarian
OVCAR-5 ovarian = test system: OVCAR-5 ovarian
OVCAR-8 ovarian = test system: OVCAR-8 ovarian
PC-3 prostate = test system: PC-3 prostate
RPMI-8226 leukemia = test system: RPMI-8226 leukemia
RXF 393 renal = test system: RXF 393 renal
SF-268 CNS = test system: SF-268 CNS
SF-295 CNS = test system: SF-295 CNS
SF-539 CNS = test system: SF-539 CNS
SK-MEL-2 melanoma = test system: SK-MEL-2 melanoma
SK-MEL-28 melanoma = test system: SK-MEL-28 melanoma
SK-MEL-5 melanoma = test system: SK-MEL-5 melanoma
SK-OV-3 ovarian = test system: SK-OV-3 ovarian
SN12C renal = test system: SN12C renal
SNB-19 CNS = test system: SNB-19 CNS
SNB-75 CNS = test system: SNB-75 CNS
SR leukemia = test system: SR leukemia
SW-620 colon = test system: SW-620 colon
T-47D breast = test system: T-47D breast
TK-10 renal = test system: TK-10 renal
U251 CNS = test system: U251 CNS
UACC-257 melanoma = test system: UACC-257 melanoma
UACC-62 melanoma = test system: UACC-62 melanoma
UO-31 renal = test system: UO-31 renal

Compound `O=C(CCCCCCc1nc2ccc(Br)cc2[nH]1)NO` has a GI50 (786-0 renal) of 1030 nM, a TGI (786-0 renal) of 10700 nM and a GI50 (A498 renal) of 723 nM. It also gave a TGI (A498 renal) of 2100 nM, a GI50 (A549 NSCLC) of 578 nM and a TGI (A549 NSCLC) of 11300 nM. The GI50 (ACHN renal) was 671 nM, the TGI (ACHN renal) was 3410 nM and the GI50 (BT-549 breast) was 1690 nM. It also gave a TGI (BT-549 breast) of 32300 nM, a GI50 (CAKI-1 renal) of 461 nM and a TGI (CAKI-1 renal) of 1540 nM. It also gave a GI50 (CCRF-CEM leukemia) of 405 nM, a TGI (CCRF-CEM leukemia) greater than 100000 nM and a GI50 (COLO 205 colon) of 975 nM. For the same compound, the TGI (COLO 205 colon) was 5070 nM, the GI50 (DU-145 prostate) was 621 nM and the TGI (DU-145 prostate) was 5840 nM. The GI50 (EKVX NSCLC) was 1550 nM, the TGI (EKVX NSCLC) was 97100 nM and the GI50 (HCC-2998 colon) was 777 nM. The TGI (HCC-2998 colon) was 3080 nM, the GI50 (HCT-116 colon) was 202 nM and the TGI (HCT-116 colon) was 1030 nM. It also gave a GI50 (HCT-15 colon) of 1690 nM, a TGI (HCT-15 colon) greater than 86500 nM and a GI50 (HL-60(TB) leukemia) of 461 nM. For the same compound, the TGI (HL-60(TB) leukemia) was greater than 100000 nM, the GI50 (HOP-62 NSCLC) was 632 nM and the TGI (HOP-62 NSCLC) was 14600 nM. The GI50 (HOP-92 NSCLC) was 241 nM, the TGI (HOP-92 NSCLC) was 905 nM and the GI50 (HS 578T breast) was 331 nM. It also gave a TGI (HS 578T breast) of 3210 nM, a GI50 (HT29 colon) of 291 nM and a GI50 (IGROV1 ovarian) of 523 nM. It also gave a TGI (IGROV1 ovarian) of 2450 nM, a GI50 (K-562 leukemia) of 357 nM and a TGI (K-562 leukemia) greater than 100000 nM. For the same compound, the GI50 (KM12 colon) was 377 nM, the TGI (KM12 colon) was 4180 nM and the GI50 (LOX IMVI melanoma) was 396 nM. The TGI (LOX IMVI melanoma) was 1550 nM, the GI50 (M14 melanoma) was 340 nM and the TGI (M14 melanoma) was 7510 nM. For the same compound, the GI50 (MALME-3M melanoma) was 203 nM, the TGI (MALME-3M melanoma) was 813 nM and the GI50 (MCF7 breast) was 425 nM. For the same compound, the TGI (MCF7 breast) was greater than 100000 nM, the GI50 (MDA-MB-231 breast) was 824 nM and the TGI (MDA-MB-231 breast) was 25000 nM. It also gave a GI50 (MDA-MB-435) of 277 nM, a TGI (MDA-MB-435) of 1380 nM and a GI50 (MOLT-4 leukemia) of 342 nM. The TGI (MOLT-4 leukemia) was greater than 100000 nM, the GI50 (NCI-H226 lung) was 1650 nM and the TGI (NCI-H226 lung) was 7370 nM. It also gave a GI50 (NCI-H23 lung) of 507 nM, a TGI (NCI-H23 lung) of 4890 nM and a GI50 (NCI-H460 lung) of 386 nM. The TGI (NCI-H460 lung) was 10600 nM, the GI50 (NCI-H522 lung) was 134 nM and the TGI (NCI-H522 lung) was 859 nM. The GI50 (NCI/ADR-RES ovarian) was 216 nM, the TGI (NCI/ADR-RES ovarian) was 1870 nM and the GI50 (OVCAR-3 ovarian) was 313 nM. For the same compound, the TGI (OVCAR-3 ovarian) was 1610 nM, the GI50 (OVCAR-4 ovarian) was 2430 nM and the TGI (OVCAR-4 ovarian) was greater than 100000 nM. It also gave a GI50 (OVCAR-5 ovarian) of 568 nM, a TGI (OVCAR-5 ovarian) of 22300 nM and a GI50 (OVCAR-8 ovarian) of 275 nM. The TGI (OVCAR-8 ovarian) was 16000 nM, the GI50 (PC-3 prostate) was 796 nM and the TGI (PC-3 prostate) was greater than 100000 nM. It also gave a GI50 (RPMI-8226 leukemia) of 411 nM, a TGI (RPMI-8226 leukemia) greater than 100000 nM and a GI50 (RXF 393 renal) of 240 nM. The TGI (RXF 393 renal) was 813 nM, the GI50 (SF-268 CNS) was 670 nM and the TGI (SF-268 CNS) was 3300 nM. For the same compound, the GI50 (SF-295 CNS) was 471 nM, the TGI (SF-295 CNS) was 2840 nM and the GI50 (SF-539 CNS) was 970 nM. It also gave a TGI (SF-539 CNS) of 31300 nM, a GI50 (SK-MEL-2 melanoma) of 279 nM and a TGI (SK-MEL-2 melanoma) of 3870 nM. For the same compound, the GI50 (SK-MEL-28 melanoma) was 703 nM, the TGI (SK-MEL-28 melanoma) was 2750 nM and the GI50 (SK-MEL-5 melanoma) was 328 nM. The TGI (SK-MEL-5 melanoma) was 1380 nM, the GI50 (SK-OV-3 ovarian) was 628 nM and the TGI (SK-OV-3 ovarian) was 3520 nM. It also gave a GI50 (SN12C renal) of 1300 nM, a TGI (SN12C renal) greater than 35500 nM and a GI50 (SNB-19 CNS) of 689 nM. For the same compound, the TGI (SNB-19 CNS) was greater than 30000 nM, the GI50 (SNB-75 CNS) was 419 nM and the TGI (SNB-75 CNS) was greater than 100000 nM. It also gave a GI50 (SR leukemia) of 148 nM, a TGI (SR leukemia) greater than 100000 nM and a GI50 (SW-620 colon) of 266 nM. It also gave a TGI (SW-620 colon) of 1040 nM, a GI50 (T-47D breast) of 230 nM and a TGI (T-47D breast) greater than 100000 nM. It also gave a GI50 (TK-10 renal) of 596 nM, a TGI (TK-10 renal) of 5700 nM and a GI50 (U251 CNS) of 387 nM. For the same compound, the TGI (U251 CNS) was 4620 nM, the GI50 (UACC-257 melanoma) was 354 nM and the TGI (UACC-257 melanoma) was 7170 nM. For the same compound, the GI50 (UACC-62 melanoma) was 189 nM, the TGI (UACC-62 melanoma) was 1170 nM and the GI50 (UO-31 renal) was 433 nM. It also gave a TGI (UO-31 renal) of 5220 nM.
